Measured values published in patent publication US20110039846A1, “IMINOPYRIDINE DERIVATIVES AND USE THEREOF” (TAKEDA PHARMACEUTICAL COMPANY LIMITED, priority 2008, published 2011).
Structures can show the parent of a compound that is named as a salt.

Biological target: T1, human α1D adrenaline receptor (Homo sapiens, UniProt P25100)
T1 construct: expressed in transfected cells
T1 sequence (P25100 1-572): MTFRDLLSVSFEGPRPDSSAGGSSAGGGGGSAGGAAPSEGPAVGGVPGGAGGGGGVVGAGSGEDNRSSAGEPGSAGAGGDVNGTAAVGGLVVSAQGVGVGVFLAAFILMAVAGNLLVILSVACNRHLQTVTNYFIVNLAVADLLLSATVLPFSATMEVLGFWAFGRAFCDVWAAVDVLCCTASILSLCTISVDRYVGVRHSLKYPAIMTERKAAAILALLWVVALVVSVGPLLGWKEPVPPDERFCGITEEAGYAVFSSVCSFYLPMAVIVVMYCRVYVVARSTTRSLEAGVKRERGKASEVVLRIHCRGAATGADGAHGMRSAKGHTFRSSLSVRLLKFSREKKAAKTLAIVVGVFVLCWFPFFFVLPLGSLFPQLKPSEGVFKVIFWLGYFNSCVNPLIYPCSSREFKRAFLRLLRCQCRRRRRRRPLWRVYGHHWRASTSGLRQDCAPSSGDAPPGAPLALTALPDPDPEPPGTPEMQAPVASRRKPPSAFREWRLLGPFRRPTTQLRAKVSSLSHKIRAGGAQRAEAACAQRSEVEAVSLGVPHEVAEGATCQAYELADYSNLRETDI
Assay: Measurement of α1D adrenaline receptor binding inhibitory activity ([3H] prazosin binding to membrane fraction of CHO-K1 cells expressing the receptor)
Details: α1D adrenaline receptor binding inhibitory rate at 1 μM compound; [3H] prazosin 2.5 nM; CHO-K1 membrane fraction 20 μg/well; room temperature 1 hr
Experimental: Measurement of α1D Adrenaline Receptor Binding Inhibitory Activity
Genetic manipulation methods described below are based on the methods described in Maniatis et al., Molecular Cloning, Cold Spring Harbor Laboratory, 1989, the protocol appended to a reagent and the like.
α1D Adrenaline receptor gene was cloned from human liver cDNA by the PCR method. PCR reaction was performed by Gene Amp PCR System 9700 (Applied Biosystems) with 50 pmol each of the primer set 5′-[…]-3′ [SEQ ID NO: 1] and 5′-[…]-3′ [SEQ ID NO: 2] prepared in reference to the base sequence of the α1D adrenaline receptor gene reported by DEBRA A. et al. (J. Pharmacol. Exp. Ter., 272, 134-142 (1995)), 200 ng of human brain hippocampus cDNA library (Takara Shuzo Co., Ltd.) as a template and TaKaRa LA-Taq DNA Polymerase (Takara Shuzo Co., Ltd.) (reaction conditions: 45 cycles of 94° C. for 15 sec, 68° C. for 3.5 min).
The PCR fragment obtained above was digested with restriction enzymes NheI (Takara Shuzo Co., Ltd.) and Kpn I (Takara Shuzo Co., Ltd.), and applied to agarose gel electrophoresis to recover DNA fragments. The DNA fragments were ligated with animal cell expression plasmid pcDNA3.1/Zeo (Invitrogen) digested with NheI and Kpn I, by DNA Ligation Kit Ver.2 (Takara Shuzo Co., Ltd.), and transformed the competent cells of Escherichia coli JM109 to obtain plasmid, pcDNA3.1/Zeo-Adreα1D.
CHO-K1 cells passage cultured in HamF12 medium (Invitrogen) containing 10% fetal bovine serum (TRACE SCIENCETIFIC) in a 150 cm^2 culture flask (Corning Coaster) were detached with 0.5 g/L trypsin-0.2 g/L EDTA (Invitrogen), and the cells were washed with D-PBS(−) (Invitrogen) and centrifuged (1000 rpm, 5 min). Then, using Gene Pulser II (BioRad), DNA was introduced into the cells under the following conditions. 1×10^7 cells suspended in D-PBS(−) (700 μl) and 10 μg of pcDNA3.1/Zeo-Adreα1D were added in a 0.4 cm gap cuvette (BioRad), and electroporation was performed under voltage 0.25 kV, capacitance 960 μF. The cells were cultured in HamF12 medium containing 10% fetal bovine serum and 250 μg/mL Zeocin (Invitrogen) and the Zeocin resistance clones were selected.
Plurality of Zeocin resistance clones were selected and cultured in a cell culture flask (150 cm^2) until semiconfluent, and the cellular membrane fraction was prepared as follows.
The semiconfluent cells were detached with 0.02% EDTA containing D-PBS(−) and recovered by centrifugation. The cells were suspended in membrane preparation buffer (10 mM NaHCO3 pH 7.4, protease inhibitor cocktail (Roche)) and disrupted by 3 times of treatment in a polytron homogenizer (model PT-3100, KINEMATICA AG) at 20000 rpm for 20 seconds. After disruption, the cells were centrifuged at 2000 rpm for 10 min and the supernatant containing membrane fractions was obtained. The supernatant was centrifuged using an ultracentrifuge (model L8-70M, rotor 70 Ti, Beckman Instruments) at 30000 rpm for 1 hr to obtain a precipitate containing membrane fractions. The obtained membrane fraction of each clone was subjected to the binding experiment shown below.
The membrane fraction (20 μg/well) and [^3H] prazosin (2.5 nM, PerkinElmer Lifescience), as a ligand, were diluted with a binding assay buffer (50 mM Tris-HCl, 10 mM MgCl2, 0.5% BSA, protease inhibitor cocktail pH 7.5), added to a 96 well microplate, and reacted at room temperature for 1 hr. For the measurement of non-specific binding, phentolamine (Sigma) was further added to 10 μM. Then, the reaction mixture was filtered and transferred to unifilter GF/C (PerkinElmer Lifescience) by using a cell harvester (PerkinElmer Lifescience). The filter was washed 3 times with ice-cooled 50 mM Tris buffer (pH 7.5). After drying the filter, MicroScinti 0 (PerkinElmer Lifescience) was added to the filter and the radioactivity was measured by TopCount (PerkinElmer Lifescience). […]

inhibition at 1 µM [%]	SMILES
89	N=c1c(C(N)=O)cc(Cl)cn1Cc1cc(Cl)ccc1N1CCCC1=O [Example 35, 5-chloro-1-[5-chloro-2-(2-oxopyrrolidin-1-yl)benzyl]-2-imino-1,2-dihydropyridine-3-carboxamide hydrochloride]
87.5	CS(=O)(=O)c1cc(Cl)cc(Cn2cc(Cl)cc(C(N)=O)c2=N)c1 [Example 12, 5-chloro-1-[3-chloro-5-(methylsulfonyl)benzyl]-2-imino-1,2-dihydropyridine-3-carboxamide hydrochloride]
100	CS(=O)(=O)c1ccc(Cl)cc1Cn1cc(Cl)cc(C(N)=O)c1=N [Example 1, 5-chloro-1-[5-chloro-2-(methylsulfonyl)benzyl]-2-imino-1,2-dihydropyridine-3-carboxamide hydrochloride]
72.8	CS(=O)(=O)c1cc(Cn2cc(Cl)cc(C(N)=O)c2=N)ccc1Cl [Example 15, 5-chloro-1-[4-chloro-3-(methylsulfonyl)benzyl]-2-imino-1,2-dihydropyridine-3-carboxamide hydrochloride]
98.4	CCS(=O)(=O)c1ccc(F)cc1Cn1cc(Cl)cc(C(N)=O)c1=N [Example 24, 5-chloro-1-[2-(ethylsulfonyl)-5-fluorobenzyl]-2-imino-1,2-dihydropyridine-3-carboxamide hydrochloride]
93.5	CS(=O)(=O)c1ccc(F)cc1Cn1cc(Cl)cc(C(N)=O)c1=N [Example 18, 5-chloro-1-[5-fluoro-2-(methylsulfonyl)benzyl]-2-imino-1,2-dihydropyridine-3-carboxamide hydrochloride]
91.2	N=c1c(C(N)=O)cc(Cl)cn1Cc1cc(Cl)ccc1S(N)(=O)=O [Example 28, 5-chloro-1-(5-chloro-2-sulfamoylbenzyl)-2-imino-1,2-dihydropyridine-3-carboxamide hydrochloride]
100	CCS(=O)(=O)c1ccc(Cl)cc1Cn1cc(Cl)cc(C(N)=O)c1=N [Example 17, 5-chloro-1-[5-chloro-2-(ethylsulfonyl)benzyl]-2-imino-1,2-dihydropyridine-3-carboxamide hydrochloride]
93.5	Cc1ccc(S(C)(=O)=O)c(Cn2cc(Cl)cc(C(N)=O)c2=N)c1 [Example 8, 5-chloro-2-imino-1-[5-methyl-2-(methylsulfonyl)benzyl]-1,2-dihydropyridine-3-carboxamide hydrochloride]
92	C[S+]([O-])c1ccc(Cl)cc1Cn1cc(Cl)cc(C(N)=O)c1=N (stereo not shown) [Example 14, 5-chloro-1-[5-chloro-2-(methylsulfinyl)benzyl]-2-imino-1,2-dihydropyridine-3-carboxamide hydrochloride]
